test system: HeLa; experiment: Cytotoxicity against human HeLa assessed as reduction in cell viability after 48 hrs by MTT assay; format: functional, cell-based; conditions: not given

Row | SMILES | IC50 [µM]
1 | CCN(CC)c1ccc2cc(C(=O)c3ccc(N4CCN(C(=O)CN5CCN(Cc6ccc(C#N)cc6)CC5)CC4)cc3)oc2c1 | > 40
2 | CCN(CC)c1ccc2cc(C(=O)c3ccc(N4CCN(C(=O)CN5CCN(S(=O)(=O)C6CC6)CC5)CC4)cc3)oc2c1 | 28.1
3 | CCN(CC)c1ccc2cc(C(=O)c3ccc(N4CCN(C(=O)CN5CCN(S(=O)(=O)c6ccc(OC(F)(F)F)cc6)CC5)CC4)cc3)oc2c1 | 30.2
4 | CCN(CC)c1ccc2cc(C(=O)c3ccc(N4CCN(C(=O)CN5CCN(Cc6ccc(F)c(F)c6)CC5)CC4)cc3)oc2c1 | 6.4
5 | CCN(CC)c1ccc2cc(C(=O)c3ccc(N4CCN(C(=O)CN5CCN(CC(=O)c6ccc7ccccc7c6)CC5)CC4)cc3)oc2c1 | 17.1
6 | CCN(CC)c1ccc2cc(C(=O)c3ccc(N4CCN(C(=O)CN5CCN(S(=O)(=O)c6ccc(C(F)(F)F)cc6)CC5)CC4)cc3)oc2c1 | > 40

test system: A549; experiment: Cytotoxicity against human A549 assessed as reduction in cell viability after 48 hrs by MTT assay; format: functional, cell-based; conditions: A549, 48 h

Row | SMILES | IC50 [µM]
7 | CCN(CC)c1ccc2cc(C(=O)c3ccc(N4CCN(C(=O)CN5CCN(Cc6ccc(C#N)cc6)CC5)CC4)cc3)oc2c1 | 17.4
8 | CCN(CC)c1ccc2cc(C(=O)c3ccc(N4CCN(C(=O)CN5CCN(S(=O)(=O)C6CC6)CC5)CC4)cc3)oc2c1 | 17.3
9 | CCN(CC)c1ccc2cc(C(=O)c3ccc(N4CCN(C(=O)CN5CCN(S(=O)(=O)c6ccc(OC(F)(F)F)cc6)CC5)CC4)cc3)oc2c1 | > 40
10 | CCN(CC)c1ccc2cc(C(=O)c3ccc(N4CCN(C(=O)CN5CCN(Cc6ccc(F)c(F)c6)CC5)CC4)cc3)oc2c1 | 5.44
11 | CCN(CC)c1ccc2cc(C(=O)c3ccc(N4CCN(C(=O)CN5CCN(CC(=O)c6ccc7ccccc7c6)CC5)CC4)cc3)oc2c1 | 26.3
12 | CCN(CC)c1ccc2cc(C(=O)c3ccc(N4CCN(C(=O)CN5CCN(S(=O)(=O)c6ccc(C(F)(F)F)cc6)CC5)CC4)cc3)oc2c1 | > 40

test system: MCF7; experiment: Cytotoxicity against human MCF7 assessed as reduction in cell viability after 48 hrs by MTT assay; format: functional, cell-based; conditions: MCF7, 48 h

Row | SMILES | IC50 [µM]
13 | CCN(CC)c1ccc2cc(C(=O)c3ccc(N4CCN(C(=O)CN5CCN(Cc6ccc(C#N)cc6)CC5)CC4)cc3)oc2c1 | > 40
14 | CCN(CC)c1ccc2cc(C(=O)c3ccc(N4CCN(C(=O)CN5CCN(S(=O)(=O)C6CC6)CC5)CC4)cc3)oc2c1 | > 40
15 | CCN(CC)c1ccc2cc(C(=O)c3ccc(N4CCN(C(=O)CN5CCN(S(=O)(=O)c6ccc(OC(F)(F)F)cc6)CC5)CC4)cc3)oc2c1 | 20.1
16 | CCN(CC)c1ccc2cc(C(=O)c3ccc(N4CCN(C(=O)CN5CCN(Cc6ccc(F)c(F)c6)CC5)CC4)cc3)oc2c1 | 9.22
17 | CCN(CC)c1ccc2cc(C(=O)c3ccc(N4CCN(C(=O)CN5CCN(CC(=O)c6ccc7ccccc7c6)CC5)CC4)cc3)oc2c1 | > 40
18 | CCN(CC)c1ccc2cc(C(=O)c3ccc(N4CCN(C(=O)CN5CCN(S(=O)(=O)c6ccc(C(F)(F)F)cc6)CC5)CC4)cc3)oc2c1 | 17.5

test system: SGC-7901; experiment: Cytotoxicity against human SGC7901 assessed as reduction in cell viability after 48 hrs by MTT assay; format: functional, cell-based; conditions: SGC-7901, 48 h

Row | SMILES | IC50 [µM]
19 | CCN(CC)c1ccc2cc(C(=O)c3ccc(N4CCN(C(=O)CN5CCN(Cc6ccc(C#N)cc6)CC5)CC4)cc3)oc2c1 | 26.2
20 | CCN(CC)c1ccc2cc(C(=O)c3ccc(N4CCN(C(=O)CN5CCN(S(=O)(=O)C6CC6)CC5)CC4)cc3)oc2c1 | 15.3
21 | CCN(CC)c1ccc2cc(C(=O)c3ccc(N4CCN(C(=O)CN5CCN(S(=O)(=O)c6ccc(OC(F)(F)F)cc6)CC5)CC4)cc3)oc2c1 | 24.4
22 | CCN(CC)c1ccc2cc(C(=O)c3ccc(N4CCN(C(=O)CN5CCN(Cc6ccc(F)c(F)c6)CC5)CC4)cc3)oc2c1 | 1.78
23 | CCN(CC)c1ccc2cc(C(=O)c3ccc(N4CCN(C(=O)CN5CCN(CC(=O)c6ccc7ccccc7c6)CC5)CC4)cc3)oc2c1 | > 40
24 | CCN(CC)c1ccc2cc(C(=O)c3ccc(N4CCN(C(=O)CN5CCN(S(=O)(=O)c6ccc(C(F)(F)F)cc6)CC5)CC4)cc3)oc2c1 | > 40

test system: HCT-116; experiment: Cytotoxicity against human HCT116 assessed as reduction in cell viability after 48 hrs by MTT assay; format: functional, cell-based; conditions: HCT-116, 48 h

Row | SMILES | IC50 [µM]
25 | CCN(CC)c1ccc2cc(C(=O)c3ccc(N4CCN(C(=O)CN5CCN(Cc6ccc(C#N)cc6)CC5)CC4)cc3)oc2c1 | > 40
26 | CCN(CC)c1ccc2cc(C(=O)c3ccc(N4CCN(C(=O)CN5CCN(S(=O)(=O)C6CC6)CC5)CC4)cc3)oc2c1 | > 40
27 | CCN(CC)c1ccc2cc(C(=O)c3ccc(N4CCN(C(=O)CN5CCN(S(=O)(=O)c6ccc(OC(F)(F)F)cc6)CC5)CC4)cc3)oc2c1 | 7.68
28 | CCN(CC)c1ccc2cc(C(=O)c3ccc(N4CCN(C(=O)CN5CCN(Cc6ccc(F)c(F)c6)CC5)CC4)cc3)oc2c1 | 26.3
29 | CCN(CC)c1ccc2cc(C(=O)c3ccc(N4CCN(C(=O)CN5CCN(CC(=O)c6ccc7ccccc7c6)CC5)CC4)cc3)oc2c1 | > 40
30 | CCN(CC)c1ccc2cc(C(=O)c3ccc(N4CCN(C(=O)CN5CCN(S(=O)(=O)c6ccc(C(F)(F)F)cc6)CC5)CC4)cc3)oc2c1 | 32.2

test system: L02; experiment: Cytotoxicity against human L02 assessed as reduction in cell viability after 48 hrs by MTT assay; format: cell-based; conditions: L02, 48 h

Row | SMILES | IC50 [µM]
31 | CCN(CC)c1ccc2cc(C(=O)c3ccc(N4CCN(C(=O)CN5CCN(Cc6ccc(C#N)cc6)CC5)CC4)cc3)oc2c1 | 29.6
32 | CCN(CC)c1ccc2cc(C(=O)c3ccc(N4CCN(C(=O)CN5CCN(S(=O)(=O)C6CC6)CC5)CC4)cc3)oc2c1 | > 100
33 | CCN(CC)c1ccc2cc(C(=O)c3ccc(N4CCN(C(=O)CN5CCN(S(=O)(=O)c6ccc(OC(F)(F)F)cc6)CC5)CC4)cc3)oc2c1 | 34.7
34 | CCN(CC)c1ccc2cc(C(=O)c3ccc(N4CCN(C(=O)CN5CCN(Cc6ccc(F)c(F)c6)CC5)CC4)cc3)oc2c1 | 10.2
35 | CCN(CC)c1ccc2cc(C(=O)c3ccc(N4CCN(C(=O)CN5CCN(CC(=O)c6ccc7ccccc7c6)CC5)CC4)cc3)oc2c1 | > 100
36 | CCN(CC)c1ccc2cc(C(=O)c3ccc(N4CCN(C(=O)CN5CCN(S(=O)(=O)c6ccc(C(F)(F)F)cc6)CC5)CC4)cc3)oc2c1 | 17

— ChEMBL document CHEMBL4422664, “2-Benzoylbenzofuran derivatives possessing piperazine linker as anticancer agents” (Bioorg Med Chem Lett, 2019)
